{
  "source": "patent US20070134724A1",
  "about": "“Phosphorylation of tau by abl” (priority 2005, published 2007)",
  "origin": "cited, not measured here",
  "key": {"[1]": {"test_system": "Aβ", "details": "neurons"}, "[2]": {"test_system": "Aβ", "details": "guinea pig brains"}},
  "note": "Where a name gives a salt, the structure may show the parent alone. Read-outs that look alike come from different tables or passages of the source.",
  "data": [
    {"smiles": "Cc1ccc(NC(=O)c2ccc(CN3CCN(C)CC3)cc2)cc1Nc1nccc(-c2cccnc2)n1", "note": "[Gleevec, imatinib mesylate]", "values": [
      {"measurement": "production of Aβ", "setting": "[1]", "value": "inhibits"},
      {"measurement": "production of Aβ", "setting": "[2]", "value": "inhibits"}
    ]}
  ]
}
